ChEMBL document CHEMBL1136219, “Synthesis and SAR evaluation of oxadiazolopyrazines as selective Haemophilus influenzae antibacterial agents” (2003)
Converted amounts (≈) assume the structure as drawn.

How the values were obtained:
Type in all cases: functional
JIYOYE = assay: Cytotoxicity against human Jijoye B cell
Streptococcus pneumoniae = assay: Minimum inhibitory concentration against Streptococcus pneumoniae
Haemophilus influenzae = assay: Minimum inhibitory concentration against Haemophilus influenzae
Escherichia coli = assay: Minimum inhibitory concentration against Escherichia coli
Candida albicans = assay: Minimum inhibitory concentration against Candida albicans
Staphylococcus aureus = assay: Minimum inhibitory concentration against Staphylococcus aureus

Row | MIC (Streptococcus pneumoniae) [µg/mL] | MIC (Haemophilus influenzae) [µg/mL] | MIC (Escherichia coli) [µg/mL] | MIC (Candida albicans) [µg/mL] | MIC (Staphylococcus aureus) [µg/mL] | Structure (SMILES) | Cytotoxicity (JIYOYE) [µg/mL]
1 | 128 (≈ 598 µM) | 1 (≈ 4.67 µM) | 128 (≈ 598 µM) | > 128 | 128 (≈ 598 µM) | Oc1nc2nonc2nc1-c1ccccc1 | >100
2 | 64 (≈ 218 µM) | 0.5 (≈ 1.71 µM) | > 128 | > 128 | 32 (≈ 109 µM) | Oc1nc2nonc2nc1-c1cccc(Br)c1 | >100
3 | 64 (≈ 218 µM) | 1 (≈ 3.41 µM) | > 128 | > 128 | 16 (≈ 54.6 µM) | Oc1nc2nonc2nc1-c1ccc(Br)cc1 | >100
4 | 128 (≈ 515 µM) | 1 (≈ 4.02 µM) | > 128 | > 128 | 16 (≈ 64.4 µM) | Oc1nc2nonc2nc1-c1ccc(Cl)cc1 | >100
5 | 128 (≈ 437 µM) | 128 (≈ 437 µM) | > 128 | > 128 | > 128 | Oc1nc2nonc2nc1-c1ccccc1Br | >100
6 | 64 (≈ 276 µM) | 1 (≈ 4.31 µM) | 128 (≈ 551 µM) | > 128 | 64 (≈ 276 µM) | Oc1nc2nonc2nc1-c1cccc(F)c1 | >100
7 | 128 (≈ 515 µM) | 128 (≈ 515 µM) | > 128 | > 128 | > 128 | Oc1nc2nonc2nc1-c1ccccc1Cl | >100
8 | 64 (≈ 257 µM) | 1 (≈ 4.02 µM) | > 128 | > 128 | 128 (≈ 515 µM) | Oc1nc2nonc2nc1-c1cccc(Cl)c1 | >100
9 | 128 (≈ 630 µM) | 4 (≈ 19.7 µM) | > 128 | 128 (≈ 630 µM) | 128 (≈ 630 µM) | Oc1nc2nonc2nc1-c1ccc[nH]1 | >100
10 | 64 (≈ 276 µM) | 1 (≈ 4.31 µM) | > 128 | > 128 | 64 (≈ 276 µM) | Oc1nc2nonc2nc1-c1ccc(F)cc1 | >100
11 | 64 (≈ 276 µM) | 8 (≈ 34.5 µM) | > 128 | > 128 | > 128 | Oc1nc2nonc2nc1-c1ccccc1F | >100
12 | 64 (≈ 253 µM) | 8 (≈ 31.6 µM) | > 128 | > 128 | > 128 | Oc1nc2nonc2nc1-c1c[nH]c2ccccc12 | >100

Continued, compound first:

Row | Structure (SMILES) | MIC (Streptococcus pneumoniae) [µg/mL] | MIC (Haemophilus influenzae) [µg/mL] | MIC (Escherichia coli) [µg/mL] | MIC (Candida albicans) [µg/mL] | MIC (Staphylococcus aureus) [µg/mL] | Cytotoxicity (JIYOYE) [µg/mL]
13 | O=[N+]([O-])c1ccc(-c2nc3nonc3nc2O)cc1 | 128 (≈ 494 µM) | 8 (≈ 30.9 µM) | > 128 | > 128 | > 128 | >100
14 | O=[N+]([O-])c1cccc(-c2nc3nonc3nc2O)c1 | 64 (≈ 247 µM) | 1 (≈ 3.86 µM) | > 128 | > 128 | 32 (≈ 123 µM) | >100
15 | Oc1nc2nonc2nc1-c1ccc(C(F)(F)F)cc1 | 64 (≈ 227 µM) | 4 (≈ 14.2 µM) | > 128 | > 128 | 32 (≈ 113 µM) | >100
16 | COc1cc(-c2nc3nonc3nc2O)cc(OC)c1OC | 128 (≈ 421 µM) | 128 (≈ 421 µM) | > 128 | > 128 | > 128 | >100
17 | COc1ccc(-c2nc3nonc3nc2O)cc1 | 128 (≈ 524 µM) | 4 (≈ 16.4 µM) | > 128 | > 128 | 64 (≈ 262 µM) | >100
18 | CN(C)c1ccc(-c2nc3nonc3nc2O)cc1 | 128 (≈ 498 µM) | 4 (≈ 15.5 µM) | > 128 | > 128 | > 128 | >100
19 | Oc1nc2nonc2nc1-c1ccc(Oc2ccccc2)cc1 | 64 (≈ 209 µM) | 8 (≈ 26.1 µM) | > 128 | > 128 | 4 (≈ 13.1 µM) | 60
20 | Oc1nc2nonc2nc1-c1ccsc1 | 128 (≈ 581 µM) | 1 (≈ 4.54 µM) | 128 (≈ 581 µM) | > 128 | 64 (≈ 291 µM) | 100
21 | Oc1nc2nonc2nc1-c1ccc(N2CCOCC2)cc1 | 64 (≈ 214 µM) | 32 (≈ 107 µM) | > 128 | > 128 | > 128 | >100
22 | Cn1cccc1-c1nc2nonc2nc1O | 64 (≈ 295 µM) | 8 (≈ 36.8 µM) | > 128 | > 128 | > 128 | >100
23 | Oc1nc2nonc2nc1-c1ccc2c(c1)OCO2 | 128 (≈ 496 µM) | 2 (≈ 7.75 µM) | > 128 | > 128 | 64 (≈ 248 µM) | >100
24 | Oc1nc2nonc2nc1-c1ccc(C2CCCCC2)cc1 | 64 (≈ 216 µM) | 16 (≈ 54 µM) | > 128 | > 128 | 4 (≈ 13.5 µM) | 60
25 | COc1cccc(-c2nc3nonc3nc2O)c1 | 64 (≈ 262 µM) | 8 (≈ 32.8 µM) | > 128 | > 128 | 128 (≈ 524 µM) | >100
26 | Oc1nc2nonc2nc1-c1cccc(C(F)(F)F)c1 | 128 (≈ 454 µM) | 2 (≈ 7.09 µM) | > 128 | > 128 | 32 (≈ 113 µM) | >100
27 | Oc1nc2nonc2nc1-c1cccs1 | 64 (≈ 291 µM) | 0.5 (≈ 2.27 µM) | 128 (≈ 581 µM) | > 128 | 32 (≈ 145 µM) | >100
28 | Oc1nc2nonc2nc1-c1ccc(N2CCCCC2)cc1 | 128 (≈ 431 µM) | 64 (≈ 215 µM) | > 128 | > 128 | 64 (≈ 215 µM) | >100
